According to patent US9745311B2, “Substituted pyrrolo[2,3-b]pyrazines as FGFR inhibitors” (Incyte Corporation, priority 2012, dated 2017):
Read-outs that look alike come from different tables or passages of the source.

Tests used:
FGFR1 = FGFR1 (Homo sapiens (Human), UniProt P11362); assay: FGFR Enzymatic Assay (FGFR1); format: biochemical; details: enzyme 0.02 nM, ATP 210 μM
Description: (§1) The inhibitor potency of compounds was measured in an enzyme assay that measures peptide phosphorylation using FRET measurements to detect product formation. Inhibitors were serially diluted in DMSO and a volume of 0.5 μL was transferred to the wells of a 384-well plate. For FGFR3, a 10 μL volume of FGFR3 enzyme (Millipore) diluted in assay buffer (50 mM HEPES, 10 mM MgCl2, 1 mM EGTA, 0.01% Tween-20, 5 mM DTT, pH 7.5) was added to the plate and pre-incubated for 5-10 minutes. Appropriate controls (enzyme blank and enzyme with no inhibitor) were included on the plate. […] The plate was incubated at 25° C. for 1 hr. […] The plate was allowed to equilibrate for ˜1 hr before scanning the wells on a PheraStar plate reader.
(§2) GraphPad prism3 was used to analyze the data. The IC50 values were derived by fitting the data to the equation for a sigmoidal dose-response with a variable slope. Y=Bottom+(Top−Bottom)/(1+10^((Log IC50−X)*HillSlope)) where X is the logarithm of concentration and Y is the response.

FGFR2 = FGFR2 (Homo sapiens (Human), UniProt P21802); assay: FGFR Enzymatic Assay (FGFR2); format: biochemical;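 also: FRET read-out of peptide phosphorylation by the purified kinase, with enzyme-free blank and uninhibited enzyme as controls, potency from a variable-slope sigmoidal dose-response fit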
Description: as §1, §2

FGFR3 enzyme (Millipore) [1] = target: T1, FGFR3 enzyme (Millipore) (Homo sapiens (Human), UniProt P22607); assay: biochemical
Description: as §1, §2

FGFR3 enzyme (Millipore) [2] = target: T1, FGFR3 enzyme (Millipore); details: read-out: FGFR3 IC50, ATP 140 μM
Description: as §1, §2

[3] = enzyme 0.01 nM, ATP 100 μM, read-out: FGFR2 IC50

Chain of FGFR1 (P11362 22-822): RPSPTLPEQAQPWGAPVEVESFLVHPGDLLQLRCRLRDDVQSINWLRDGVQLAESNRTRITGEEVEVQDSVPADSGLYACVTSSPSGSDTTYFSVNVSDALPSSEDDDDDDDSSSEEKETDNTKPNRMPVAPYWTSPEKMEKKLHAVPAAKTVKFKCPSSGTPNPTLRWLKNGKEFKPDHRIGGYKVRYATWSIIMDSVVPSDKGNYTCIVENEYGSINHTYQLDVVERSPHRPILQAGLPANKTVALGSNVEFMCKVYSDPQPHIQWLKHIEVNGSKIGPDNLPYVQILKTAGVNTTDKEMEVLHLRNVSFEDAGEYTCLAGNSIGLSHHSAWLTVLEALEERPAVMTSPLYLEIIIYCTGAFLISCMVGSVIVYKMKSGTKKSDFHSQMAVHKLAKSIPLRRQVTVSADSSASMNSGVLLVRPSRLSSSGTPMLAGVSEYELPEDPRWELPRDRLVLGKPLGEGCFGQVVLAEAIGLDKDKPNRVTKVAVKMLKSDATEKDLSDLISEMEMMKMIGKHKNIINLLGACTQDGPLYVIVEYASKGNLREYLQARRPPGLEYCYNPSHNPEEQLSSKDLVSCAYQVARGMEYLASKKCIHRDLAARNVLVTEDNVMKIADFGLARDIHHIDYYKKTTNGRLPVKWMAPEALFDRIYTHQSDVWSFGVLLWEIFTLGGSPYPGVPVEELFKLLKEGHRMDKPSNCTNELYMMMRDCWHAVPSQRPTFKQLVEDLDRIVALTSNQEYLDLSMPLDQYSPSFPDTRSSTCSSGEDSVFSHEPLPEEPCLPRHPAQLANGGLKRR
T1 sequence (P22607 23-806): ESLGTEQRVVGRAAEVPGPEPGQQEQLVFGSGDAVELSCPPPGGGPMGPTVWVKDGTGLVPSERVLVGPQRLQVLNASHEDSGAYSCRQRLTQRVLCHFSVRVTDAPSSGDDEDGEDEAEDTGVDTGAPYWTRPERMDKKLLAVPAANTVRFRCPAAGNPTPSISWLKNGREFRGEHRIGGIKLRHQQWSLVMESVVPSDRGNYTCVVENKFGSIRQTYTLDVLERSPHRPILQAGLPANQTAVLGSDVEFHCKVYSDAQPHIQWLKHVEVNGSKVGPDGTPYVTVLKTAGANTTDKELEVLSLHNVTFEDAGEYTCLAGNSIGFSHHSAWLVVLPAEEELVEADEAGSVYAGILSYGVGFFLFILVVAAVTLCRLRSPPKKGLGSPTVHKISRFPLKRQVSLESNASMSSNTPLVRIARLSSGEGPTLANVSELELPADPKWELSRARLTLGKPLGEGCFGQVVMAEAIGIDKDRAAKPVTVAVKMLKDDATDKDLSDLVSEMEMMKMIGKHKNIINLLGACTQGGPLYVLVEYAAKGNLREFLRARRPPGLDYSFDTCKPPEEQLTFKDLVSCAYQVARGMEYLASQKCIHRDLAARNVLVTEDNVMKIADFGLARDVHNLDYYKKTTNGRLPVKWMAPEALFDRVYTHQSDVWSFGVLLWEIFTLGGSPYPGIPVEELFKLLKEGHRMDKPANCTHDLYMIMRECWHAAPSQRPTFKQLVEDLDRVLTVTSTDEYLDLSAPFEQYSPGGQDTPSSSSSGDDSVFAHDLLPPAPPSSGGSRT
Chain of FGFR2 (P21802 22-821): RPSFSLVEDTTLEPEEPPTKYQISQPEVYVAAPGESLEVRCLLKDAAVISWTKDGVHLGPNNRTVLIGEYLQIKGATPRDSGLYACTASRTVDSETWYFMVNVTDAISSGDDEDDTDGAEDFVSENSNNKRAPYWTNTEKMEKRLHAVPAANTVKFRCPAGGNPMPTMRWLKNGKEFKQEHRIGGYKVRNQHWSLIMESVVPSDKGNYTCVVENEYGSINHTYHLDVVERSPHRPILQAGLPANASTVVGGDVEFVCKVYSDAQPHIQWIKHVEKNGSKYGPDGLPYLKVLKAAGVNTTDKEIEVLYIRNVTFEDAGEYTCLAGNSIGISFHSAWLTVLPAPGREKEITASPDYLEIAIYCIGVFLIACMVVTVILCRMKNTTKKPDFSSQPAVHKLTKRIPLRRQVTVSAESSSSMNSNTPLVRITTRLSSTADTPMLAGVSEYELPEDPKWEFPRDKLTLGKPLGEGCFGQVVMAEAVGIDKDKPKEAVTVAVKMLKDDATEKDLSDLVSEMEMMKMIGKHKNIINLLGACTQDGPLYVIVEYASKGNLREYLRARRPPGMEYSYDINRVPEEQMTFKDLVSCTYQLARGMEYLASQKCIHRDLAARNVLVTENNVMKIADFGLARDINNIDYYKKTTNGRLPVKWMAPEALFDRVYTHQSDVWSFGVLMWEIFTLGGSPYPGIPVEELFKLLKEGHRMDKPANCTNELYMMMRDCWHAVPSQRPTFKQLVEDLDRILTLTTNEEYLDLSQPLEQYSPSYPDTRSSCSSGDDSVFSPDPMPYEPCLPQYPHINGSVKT

Compound	IC50 (FGFR1) [nM]	IC50 (FGFR2) [nM]	IC50 (FGFR3 enzyme (Millipore) [1]) [nM]	IC50 (FGFR2; [3]) [nM]	IC50 (FGFR3 enzyme (Millipore) [2]; class symbols) [nM]	IC50 (FGFR3 enzyme (Millipore) [2]; numeric bounds) [nM]
COc1cc(CCc2cnc3[nH]c(-c4c(F)cccc4F)cc3n2)cc(OC)c1 [Example 4, 6-(2,6-difluorophenyl)-2-(3,5-dimethoxyphenethyl)-5H-pyrrolo[2,3-b]pyrazine]	< 100	100 to 500	500 to 2700	–	–	–
COc1cc(CCc2cnc3[nH]c(-c4ccc(NC(C)=O)cc4)cc3n2)cc(OC)c1 [Example 6, N-(4-{2-[2-(3,5-dimethoxyphenyl)ethyl]-5H-pyrrolo[2,3-b]pyrazin-6-yl}phenyl)acetamide]	< 100	–	100 to 500	< 100	–	–
COc1cc(CCc2cnc3[nH]c(-c4ccc(C(=O)N(C)C)cc4)cc3n2)cc(OC)c1 [Example 7, 4-{2-[2-(3,5-dimethoxyphenyl)ethyl]-5H-pyrrolo[2,3-b]pyrazin-6-yl}-N,N-dimethylbenzamide]	< 100	–	100 to 500	< 100	–	–
COc1cc(CCc2cnc3[nH]c(-c4ccc(C(F)(F)F)cc4)cc3n2)cc(OC)c1 [Example 8, 2-[2-(3,5-dimethoxyphenyl)ethyl]-6-[4-(trifluoromethyl)phenyl]-5H-pyrrolo[2,3-b]pyrazine]	< 100	100 to 500	100 to 500	–	–	–
COc1cc(CCc2cnc3[nH]c(-c4ccccc4C)cc3n2)cc(OC)c1 [Example 9, 2-[2-(3,5-dimethoxyphenyl)ethyl]-6-(2-methylphenyl)-5H-pyrrolo[2,3-b]pyrazine]	< 100	100 to 500	500 to 2700	–	–	–
COc1cc(CCc2cnc3[nH]c(-c4ccccc4C#N)cc3n2)cc(OC)c1 [Example 10, 2-{2-[2-(3,5-dimethoxyphenyl)ethyl]-5H-pyrrolo[2,3-b]pyrazin-6-yl}benzonitrile]	< 100	–	500 to 2700	< 100	–	–
COc1cc(CCc2cnc3[nH]c(-c4ccc(CC#N)cc4)cc3n2)cc(OC)c1 [Example 14, (4-{2-[2-(3,5-dimethoxyphenyl)ethyl]-5H-pyrrolo[2,3-b]pyrazin-6-yl}phenyl)acetonitrile]	< 100	–	100 to 500	< 100	–	–
COc1cc(CCc2cnc3[nH]c(-c4ccc(N5CCN(C)CC5)nc4)cc3n2)cc(OC)c1 [Example 16, 2-[2-(3,5-dimethoxyphenyl)ethyl]-6-[6-(4-methylpiperazin-1-yl)pyridin-3-yl]-5H-pyrrolo[2,3-b]pyrazine]	< 100	–	100 to 500	< 100	–	–
CNC(=O)c1ccc(-c2cc3nc(CCc4cc(OC)cc(OC)c4)cnc3[nH]2)cn1 [Example 17, 5-{2-[2-(3,5-dimethoxyphenyl)ethyl]-5H-pyrrolo[2,3-b]pyrazin-6-yl}-N-methylpyridine-2-carboxamide]	< 100	–	100 to 500	< 100	–	–
COc1cc(CCc2cnc3[nH]c(-c4cncc(C(=O)N5CCOCC5)c4)cc3n2)cc(OC)c1 [Example 18, 2-[2-(3,5-dimethoxyphenyl)ethyl]-6-[5-(morpholin-4-ylcarbonyl)pyridin-3-yl]-5H-pyrrolo[2,3-b]pyrazine]	< 100	–	500 to 2700	< 100	–	–
COc1cc(CCc2cnc3[nH]c(C4=CCN(C)CC4)cc3n2)cc(OC)c1 [Example 23, 2-[2-(3,5-dimethoxyphenyl)ethyl]-6-(1-methyl-1,2,3,6-tetrahydropyridin-4-yl)-5H-pyrrolo[2,3-b]pyrazine]	< 100	–	100 to 500	< 100	–	–
COc1cc(CCc2cnc3[nH]c(-c4cn[nH]c4)cc3n2)cc(OC)c1 [Example 29, 2-[2-(3,5-dimethoxyphenyl)ethyl]-6-(1H-pyrazol-4-yl)-5H-pyrrolo[2,3-b]pyrazine]	< 100	–	100 to 500	< 100	–	–
COc1cc(CCc2cnc3[nH]c(-c4cnn(C)c4)cc3n2)cc(OC)c1 [Example 30, 2-[2-(3,5-dimethoxyphenyl)ethyl]-6-(1-methyl-1H-pyrazol-4-yl)-5H-pyrrolo[2,3-b]pyrazine]	< 100	–	100 to 500	< 100	–	–
COc1cc(CCc2cnc3[nH]c(-c4cnn(C5CCN(C)CC5)c4)cc3n2)cc(OC)c1 [Example 37, 2-[2-(3,5-dimethoxyphenyl)ethyl]-6-[1-(1-methylpiperidin-4-yl)-1H-pyrazol-4-yl]-5H-pyrrolo[2,3-b]pyrazine]	< 100	–	100 to 500	< 100	–	–
COc1cc(CCc2cnc3[nH]c(-c4cnn(CCO)c4)cc3n2)cc(OC)c1 [Example 38, 2-(4-{2-[2-(3,5-dimethoxyphenyl)ethyl]-5H-pyrrolo[2,3-b]pyrazin-6-yl}-1H-pyrazol-1-yl)ethanol]	< 100	–	100 to 500	< 100	–	–
COc1cc(CCc2cnc3[nH]c(-c4cnn(CCN5CCN(C)CC5)c4)cc3n2)cc(OC)c1 [Example 42, 2-[2-(3,5-dimethoxyphenyl)ethyl]-6-{1-[2-(4-methylpiperazin-1-yl)ethyl]-1H-pyrazol-4-yl}-5H-pyrrolo[2,3-b]pyrazine]	< 100	–	100 to 500	< 100	–	–

Compound	IC50 (FGFR1) [nM]	IC50 (FGFR2) [nM]	IC50 (FGFR3 enzyme (Millipore) [1]) [nM]	IC50 (FGFR2; [3]) [nM]	IC50 (FGFR3 enzyme (Millipore) [2]; class symbols) [nM]	IC50 (FGFR3 enzyme (Millipore) [2]; numeric bounds) [nM]
COc1cc(CCc2cnc3[nH]c(-c4cnn(CC(=O)N(C)C)c4)cc3n2)cc(OC)c1 [Example 43, 2-(4-{2-[2-(3,5-dimethoxyphenyl)ethyl]-5H-pyrrolo[2,3-b]pyrazin-6-yl}-1H-pyrazol-1-yl)-N,N-dimethylacetamide]	< 100	–	100 to 500	< 100	–	–
COc1cc(CCc2cnc3[nH]c(-c4ccc(N5CCN(C)CC5=O)cc4)cc3n2)cc(OC)c1 [Example 76, 1-(4-(2-(3,5-Dimethoxyphenethyl)-5H-pyrrolo[2,3-b]pyrazin-6-yl)phenyl)-4-methylpiperazin-2-one]	< 100	–	–	< 100	< 100	–
COc1cc(CCc2cnc3[nH]c(-c4ccc(N5CCC(O)CC5)cc4)cc3n2)cc(OC)c1 [Example 77, 1-(4-(2-(3,5-Dimethoxyphenethyl)-5H-pyrrolo[2,3-b]pyrazin-6-yl)phenyl)piperidin-4-ol]	< 100	–	–	< 100	< 100	–
COc1cc(CCc2cnc3[nH]c(-c4cccc(N5CCNCC5)c4)cc3n2)cc(OC)c1 [Example 78, 2-(3,5-Dimethoxyphenethyl)-6-(3-(piperazin-1-yl)phenyl)-5H-pyrrolo[2,3-b]pyrazine]	< 100	–	–	< 100	< 100	–
COc1cc(CCc2cnc3[nH]c(-c4cccc(N5CCN(C)CC5)c4)cc3n2)cc(OC)c1 [Example 79, 2-(3,5-Dimethoxyphenethyl)-6-(3-(4-methylpiperazin-1-yl)phenyl)-5H-pyrrolo[2,3-b]pyrazine]	< 100	–	–	< 100	< 100	–
COc1cc(CCc2cnc3[nH]c(-c4ccc5c(c4)CC(=O)N5)cc3n2)cc(OC)c1 [Example 80, 5-(2-(3,5-Dimethoxyphenethyl)-5H-pyrrolo[2,3-b]pyrazin-6-yl)indolin-2-one]	< 100	–	–	< 100	< 100	–
COc1cc(CCc2cnc3[nH]c(-c4ccc(N5CCN(C)C(=O)C5)cc4)cc3n2)cc(OC)c1 [Example 81, 4-(4-(2-(3,5-Dimethoxyphenethyl)-5H-pyrrolo[2,3-b]pyrazin-6-yl)phenyl)-1-methylpiperazin-2-one]	< 100	–	–	< 100	< 100	–
COc1cc(CCc2cnc3[nH]c(-c4ccc(N5CCN(C)CC5)cc4)cc3n2)c(F)c(OC)c1 [Example 82, 2-(2-Fluoro-3,5-dimethoxyphenethyl)-6-(4-(4-methylpiperazin-1-yl)phenyl)-5H-pyrrolo[2,3-b]pyrazine]	< 100	–	–	< 100	< 100	–
COc1cc(OC)c(F)c(CCc2cnc3[nH]c(-c4cn[nH]c4C)cc3n2)c1F [Example 83, 2-[2-(2,6-difluoro-3,5-dimethoxyphenyl)ethyl]-6-(5-methyl-1H-pyrazol-4-yl)-5H-pyrrolo[2,3-b]pyrazine]	< 100	–	–	< 100	< 100	–
COc1cc(OC)c(F)c(CCc2cnc3[nH]c(-c4cnn(C)c4)cc3n2)c1F [Example 84, 2-(2,6-difluoro-3,5-dimethoxyphenethyl)-6-(1-methyl-1H-pyrazol-4-yl)-5H-pyrrolo[2,3-b]pyrazine]	< 100	–	–	< 100	< 100	–
COc1cc(OC)c(F)c(CCc2cnc3[nH]c(-c4ccccc4C#N)cc3n2)c1F [Example 85, 2-(2-(2,6-difluoro-3,5-dimethoxyphenethyl)-5H-pyrrolo[2,3-b]pyrazin-6-yl)benzonitrile]	< 100	–	–	< 100	< 100	–
COc1cc(OC)c(F)c(CCc2cnc3[nH]c(-c4cccnc4OC)cc3n2)c1F [Example 86, 2-(2,6-difluoro-3,5-dimethoxyphenethyl)-6-(2-methoxypyridin-3-yl)-5H-pyrrolo[2,3-b]pyrazine]	< 100	–	–	< 100	< 100	–
COc1cc(OC)c(F)c(CCc2cnc3[nH]c(-c4cnn(CCN(C)C)c4)cc3n2)c1F [Example 87, 2-(4-(2-(2,6-difluoro-3,5-dimethoxyphenethyl)-5H-pyrrolo[2,3-b]pyrazin-6-yl)-1H-pyrazol-1-yl)-N,N-dimethylethanamine]	< 100	–	–	< 100	< 100	–
COc1cc(OC)c(F)c(CCc2cnc3[nH]c(-c4cnn(CC(C)(C)O)c4)cc3n2)c1F [Example 88, 1-(4-(2-(2,6-difluoro-3,5-dimethoxyphenethyl)-5H-pyrrolo[2,3-b]pyrazin-6-yl)-1H-pyrazol-1-yl)-2-methylpropan-2-ol]	< 100	–	–	< 100	< 100	–
CNC(=O)c1cc2nc(CCc3c(F)c(OC)cc(OC)c3F)cnc2[nH]1 [Example 89, 2-(2,6-difluoro-3,5-dimethoxyphenethyl)-N-methyl-5H-pyrrolo[2,3-b]pyrazine-6-carboxamide]	< 100	–	–	< 100	–	> 400
